Reference: ChEMBL document CHEMBL3832031, “DailyMed|setid=d3c528d2-429d-4f37-9ebf-eee8b9fd3050 | TRENTINOIN - tretinoin gel| Oceanside Pharmaceuticals”

Tests used:
[1] = Bioavailability of Tretinoin following single topical administration of 0.1 % tretinoin gel to 44 male and female subjects.; type: ADME, organism-based; conditions: both, human, in vivo, topical or ocular, dosed compound id 14, dosed compound name TRETINOIN, gender male and female, regimen Single dose, study dosing duration 28 days, tissue Plasma
[2] = Bioavailability of Tretinoin following multiple topical administration of 0.1 % tretinoin gel to 44 male and female subjects.; type: ADME, organism-based; conditions: both, human, in vivo, topical or ocular, dosed compound id 14, dosed compound name TRETINOIN, gender male and female, regimen Multiple dose, study dosing duration 28 days, tissue Plasma

bioavailability [1]: 0.82% | bioavailability [2]: 1.41%
SMILES: CC1=C(/C=C/C(C)=C/C=C/C(C)=C/C(=O)O)C(C)(C)CCC1 [TRETINOIN]
